What is called Kb is the equilibrium dissociation constant of an antagonist, usually derived from a functional assay. A low value points to a more potent antagonist.

The structures appear in SMILES notation. Like-named read-outs stand apart in the source and are kept apart here.

For one test, the target named is T1, EP1 receptor (Homo sapiens, UniProt P34995).
T1 sequence (P34995 1-402): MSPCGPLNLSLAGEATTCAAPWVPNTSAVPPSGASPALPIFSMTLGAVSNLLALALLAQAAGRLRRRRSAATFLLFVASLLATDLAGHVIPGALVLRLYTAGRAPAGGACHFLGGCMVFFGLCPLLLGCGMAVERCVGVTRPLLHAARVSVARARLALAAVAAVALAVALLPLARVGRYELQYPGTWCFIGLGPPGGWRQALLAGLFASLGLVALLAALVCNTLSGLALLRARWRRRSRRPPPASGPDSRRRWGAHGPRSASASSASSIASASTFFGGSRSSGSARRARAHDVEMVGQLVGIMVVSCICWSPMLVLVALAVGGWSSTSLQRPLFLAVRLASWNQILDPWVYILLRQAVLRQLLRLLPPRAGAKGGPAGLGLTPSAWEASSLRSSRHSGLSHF
In words: Prostanoid receptor antagonism (FLIPR), EP1. Type of test: cell-based.

Another test has as its target EP4 receptor (Homo sapiens, UniProt P35408). In words: Prostanoid receptor antagonism (FLIPR), EP4. It counts as cell-based.
In the next test the target is T2, EP3 receptor (Homo sapiens, UniProt P43115).
T2 sequence (P43115 1-390): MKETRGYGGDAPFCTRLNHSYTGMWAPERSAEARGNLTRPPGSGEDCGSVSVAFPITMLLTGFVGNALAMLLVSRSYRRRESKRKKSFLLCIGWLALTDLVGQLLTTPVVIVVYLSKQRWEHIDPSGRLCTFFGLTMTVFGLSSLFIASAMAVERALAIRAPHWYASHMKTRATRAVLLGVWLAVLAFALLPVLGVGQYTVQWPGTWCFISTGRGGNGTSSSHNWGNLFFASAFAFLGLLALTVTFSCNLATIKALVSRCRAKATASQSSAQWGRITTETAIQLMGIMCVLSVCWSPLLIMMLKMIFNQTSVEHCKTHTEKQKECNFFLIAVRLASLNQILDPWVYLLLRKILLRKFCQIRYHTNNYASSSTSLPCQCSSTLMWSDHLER
In words: Prostanoid receptor antagonism (FLIPR), EP3. Type of test: cell-based.

In another test the target is IP receptor (Homo sapiens, UniProt P43119). The test can be described thus: Prostanoid receptor antagonism (FLIPR), IP. It counts as cell-based. The following applies: Table 1.
IP receptor, sequence (P43119 whole entry): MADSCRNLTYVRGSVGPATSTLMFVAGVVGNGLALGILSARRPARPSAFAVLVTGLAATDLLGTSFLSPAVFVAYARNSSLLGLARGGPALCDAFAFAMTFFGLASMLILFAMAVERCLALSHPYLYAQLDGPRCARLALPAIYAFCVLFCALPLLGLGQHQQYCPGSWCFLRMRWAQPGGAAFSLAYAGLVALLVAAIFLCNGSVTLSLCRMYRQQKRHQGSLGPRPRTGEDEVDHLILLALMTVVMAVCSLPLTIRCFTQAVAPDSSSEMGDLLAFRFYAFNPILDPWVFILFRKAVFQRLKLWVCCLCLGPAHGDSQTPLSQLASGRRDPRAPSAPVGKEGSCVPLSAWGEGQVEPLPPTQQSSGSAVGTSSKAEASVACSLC
The target of a further test is EP2 receptor (Homo sapiens, UniProt P43116). In words: Prostanoid receptor antagonism (FLIPR), EP2. It counts as cell-based.
EP2 receptor, sequence (P43116 whole entry): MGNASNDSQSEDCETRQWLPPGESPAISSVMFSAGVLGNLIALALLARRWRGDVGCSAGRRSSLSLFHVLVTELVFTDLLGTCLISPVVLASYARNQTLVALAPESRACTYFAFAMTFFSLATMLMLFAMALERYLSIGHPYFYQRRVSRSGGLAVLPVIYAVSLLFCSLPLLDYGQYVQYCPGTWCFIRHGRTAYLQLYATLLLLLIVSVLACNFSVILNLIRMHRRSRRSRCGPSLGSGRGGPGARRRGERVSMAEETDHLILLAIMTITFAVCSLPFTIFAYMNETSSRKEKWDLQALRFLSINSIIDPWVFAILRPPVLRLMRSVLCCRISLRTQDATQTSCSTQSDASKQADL
In another test the target is T3, FAAH Rat brain (Rattus norvegicus, UniProt P97612).
T3 construct: from tissue; host or cells: rat brain membranes
T3 sequence (P97612 1-579): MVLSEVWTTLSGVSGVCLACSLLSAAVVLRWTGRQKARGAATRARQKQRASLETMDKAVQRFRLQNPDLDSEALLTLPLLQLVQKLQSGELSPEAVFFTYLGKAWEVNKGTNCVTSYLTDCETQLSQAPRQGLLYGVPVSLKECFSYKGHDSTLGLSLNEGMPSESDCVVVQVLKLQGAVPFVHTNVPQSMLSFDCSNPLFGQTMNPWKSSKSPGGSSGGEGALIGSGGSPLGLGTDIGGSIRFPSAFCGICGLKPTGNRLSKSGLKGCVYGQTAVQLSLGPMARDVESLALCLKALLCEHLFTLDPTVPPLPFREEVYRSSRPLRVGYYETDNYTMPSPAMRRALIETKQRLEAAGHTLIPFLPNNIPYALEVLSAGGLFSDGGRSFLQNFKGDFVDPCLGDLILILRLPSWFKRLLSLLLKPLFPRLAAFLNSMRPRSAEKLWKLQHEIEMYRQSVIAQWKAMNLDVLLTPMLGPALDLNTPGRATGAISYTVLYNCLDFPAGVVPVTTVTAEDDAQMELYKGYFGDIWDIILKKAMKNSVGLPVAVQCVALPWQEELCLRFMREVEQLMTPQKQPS
The test can be described thus: FAAH inhibitory activity, rat brain membranes, [14C]-AEA hydrolysis. It counts as biochemical. The procedure:
The compounds of Examples 12, and 19 are tested for FAAH inhibitory activity as follows:
Method 1: Membranes obtained from rat brain are incubated with 2 mM [^14C]-AEA, 30 min at 37° C. at pH values ranging from 9.00 to 10.00 in presence and absence of tested compounds in a final volume of […]. Incubation is stopped by extraction with CHCl3/MeOH (1:1) and the aqueous phases containing [^14C]-Ethanolamine produced by [^14C]-AEA hydrolysis are measured.

The next test deals with FP receptor (Homo sapiens, UniProt P43088). The test can be described thus: Prostanoid receptor antagonism (FLIPR), FP. It counts as cell-based.
FP receptor, sequence (P43088 whole entry): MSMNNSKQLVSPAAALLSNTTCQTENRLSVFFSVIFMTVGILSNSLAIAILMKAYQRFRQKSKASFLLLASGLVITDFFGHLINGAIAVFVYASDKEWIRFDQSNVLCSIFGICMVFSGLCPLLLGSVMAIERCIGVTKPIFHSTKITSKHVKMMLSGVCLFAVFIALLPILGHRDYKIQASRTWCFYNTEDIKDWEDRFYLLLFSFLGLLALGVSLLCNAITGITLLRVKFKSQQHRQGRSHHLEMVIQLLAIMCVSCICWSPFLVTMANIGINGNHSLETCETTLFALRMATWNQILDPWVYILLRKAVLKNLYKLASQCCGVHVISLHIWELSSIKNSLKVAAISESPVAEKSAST
A further test addresses T4, TP receptor (Homo sapiens, UniProt P21731).
T4 sequence (P21731 1-343): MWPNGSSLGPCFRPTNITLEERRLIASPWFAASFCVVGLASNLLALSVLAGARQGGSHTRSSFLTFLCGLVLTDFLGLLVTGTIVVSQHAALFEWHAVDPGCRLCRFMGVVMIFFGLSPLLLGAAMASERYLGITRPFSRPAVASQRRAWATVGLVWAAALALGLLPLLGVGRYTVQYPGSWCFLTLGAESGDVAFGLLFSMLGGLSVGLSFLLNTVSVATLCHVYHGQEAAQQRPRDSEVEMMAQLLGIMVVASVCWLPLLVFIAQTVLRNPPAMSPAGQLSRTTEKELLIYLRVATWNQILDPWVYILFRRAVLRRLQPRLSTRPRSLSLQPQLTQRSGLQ
The test can be described thus: Prostanoid receptor antagonism (FLIPR), TP. Type of test: cell-based.

The next test addresses T5, DP receptor (Homo sapiens, UniProt Q13258).
T5 sequence (Q13258 1-359): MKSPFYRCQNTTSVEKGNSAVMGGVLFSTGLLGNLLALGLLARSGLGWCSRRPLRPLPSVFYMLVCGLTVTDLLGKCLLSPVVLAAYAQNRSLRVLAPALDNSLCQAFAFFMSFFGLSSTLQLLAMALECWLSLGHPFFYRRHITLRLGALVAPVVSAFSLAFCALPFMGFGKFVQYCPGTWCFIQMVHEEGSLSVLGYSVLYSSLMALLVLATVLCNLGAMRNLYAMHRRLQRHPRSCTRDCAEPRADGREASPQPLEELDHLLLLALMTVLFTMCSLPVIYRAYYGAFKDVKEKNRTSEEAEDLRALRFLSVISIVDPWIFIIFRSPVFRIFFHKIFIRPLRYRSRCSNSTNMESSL
In words: Prostanoid receptor antagonism (FLIPR), DP. Type of test: cell-based.

The mark [1] stands for this setting: Table 1, rat brain, read-out: FAAH Rat brain IC50.
The mark [2] stands for this setting: Table 2, rat brain, read-out: FAAH Rat brain IC50.
Where [3] appears, read: Table 3, quantity, enzyme source and unit inferred, read-out: FAAH.

EP4 receptor, sequence (P35408 whole entry): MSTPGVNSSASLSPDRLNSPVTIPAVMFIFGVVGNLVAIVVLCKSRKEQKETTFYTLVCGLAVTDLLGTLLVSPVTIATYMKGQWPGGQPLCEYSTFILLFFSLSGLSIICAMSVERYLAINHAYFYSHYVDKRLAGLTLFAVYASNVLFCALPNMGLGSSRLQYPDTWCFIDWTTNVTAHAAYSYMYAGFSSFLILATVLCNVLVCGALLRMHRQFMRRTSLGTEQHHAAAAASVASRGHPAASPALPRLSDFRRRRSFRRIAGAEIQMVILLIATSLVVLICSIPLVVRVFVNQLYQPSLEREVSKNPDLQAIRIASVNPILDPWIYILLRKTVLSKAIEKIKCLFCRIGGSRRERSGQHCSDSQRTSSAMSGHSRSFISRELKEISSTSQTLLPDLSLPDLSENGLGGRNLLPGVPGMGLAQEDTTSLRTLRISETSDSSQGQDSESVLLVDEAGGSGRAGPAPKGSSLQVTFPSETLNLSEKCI

For the molecule `O=C(CCc1ccc(F)cc1CN1CCC[C@H]1c1nc(C(=O)NCCCCC2CCCCC2)co1)NS(=O)(=O)C(F)(F)F` [Example 12a], the Kb is 50 nM at EP1 receptor (Table 1); 40 nM at EP4 receptor (Table 1); 80 nM on EP3 receptor (Table 1); 550 nM on IP receptor; 6400 nM at EP2 receptor (Table 1); 350 nM on FP receptor (Table 1). For the same molecule, the Kb on TP receptor (Table 1) and at DP receptor (Table 1) was less than 1 nM in each case. The IC50 at FAAH Rat brain (setting [1]) is 1000 nM.
For the molecule `O=C(CCc1ccc(Cl)cc1CN1CCC[C@H]1c1nc(C(=O)NCCCCC2CCCCC2)co1)NS(=O)(=O)C(F)(F)F` [Example 12b, (S)—N-(4-cyclohexylbutyl)-2-(1-(5-chloro-2-(3-oxo-3-(trifluoromethylsulfonamido)propyl)benzyl)pyrrolidin-2-yl)oxazole-4-carboxamide], the Kb at EP1 receptor (Table 1) turned out to be 70 nM; at EP4 receptor (Table 1), 40 nM; on EP3 receptor (Table 1), 100 nM; at IP receptor, 9500 nM; at EP2 receptor (Table 1) it was 5500 nM; at FP receptor (Table 1), 460 nM. In addition, the Kb at TP receptor (Table 1) and on DP receptor (Table 1) was less than 1 nM in each case. In addition, on FAAH Rat brain (setting [1]), the IC50 came out at 4500 nM.
On to `COc1ccc(CCC(=O)NS(=O)(=O)C(F)(F)F)c(CN2CCC[C@H]2c2nc(C(=O)NCCCCC3CCCCC3)co2)c1` [Example 12c, (S)—N-(4-cyclohexylbutyl)-2-(1-(5-methoxy-2-(3-oxo-3-(trifluoromethylsulfonamido)propyl)benzyl)pyrrolidin-2-yl)oxazole-4-carboxamide], for which the antagonist dissociation constant (Kb) was determined as 20 nM on EP1 receptor (Table 1); 10 nM on EP4 receptor (Table 1); 47 nM on EP3 receptor (Table 1); 860 nM at IP receptor; 830 nM on EP2 receptor (Table 1); 270 nM on FP receptor (Table 1). For the same molecule, the Kb was less than 1 nM on TP receptor (Table 1) and 17 nM at DP receptor (Table 1). The IC50 at FAAH Rat brain (setting [1]) stood at 200 nM.
As to `O=C(CCc1cc2c(cc1CN1CCC[C@H]1c1nc(C(=O)NCCCCC3CCCCC3)co1)OCO2)NS(=O)(=O)C(F)(F)F` [Example 12d], the Kb came to 60 nM on EP1 receptor (Table 1); 7 nM on EP4 receptor (Table 1); 150 nM at EP3 receptor (Table 1); 1000 nM at IP receptor; 3900 nM at EP2 receptor (Table 1); 360 nM on FP receptor (Table 1). The figures for the Kb at TP receptor (Table 1) and at DP receptor (Table 1) were 0.3 nM and 3 nM, respectively. Also, the IC50 on FAAH Rat brain (setting [1]) amounted to 740 nM.
As to `CCCCCCCCNC(=O)c1coc([C@@H]2CCCN2Cc2cc(F)ccc2CCC(=O)NS(=O)(=O)C(F)(F)F)n1` [Example 12e, 2-{1-[5-fluoro-2-(3-oxo-3-{[(trifluoromethyl)sulfonyl]amino}propyl)benzyl]pyrrolidin-2-yl}-N-octyl-1,3-oxazole-4-carboxamide], the Kb at EP1 receptor (Table 1) is 20 nM; on EP4 receptor (Table 1), 20 nM; at EP3 receptor (Table 1), 110 nM; at IP receptor, 290 nM; at EP2 receptor (Table 1) it was 2500 nM; at FP receptor (Table 1) it was 270 nM. Besides, the Kb at TP receptor (Table 1) was less than 1 nM; at DP receptor (Table 1) it was 20 nM. Besides, the IC50 on FAAH Rat brain was determined as 2100 nM.
`COc1ccc(CCC(=O)NS(=O)(=O)CCCF)c(CN2CCC[C@H]2c2nc(C(=O)NCCCCC3CCCCC3)co2)c1` [Example 12h, 2(S)—N-(4-cyclohexylbutyl)-2-(1-(5-methoxy-2-(3-oxo-3-(fluoropropylsulfonamido)propyl)benzyl)pyrrolidin-2-yl)oxazole-4-carboxamide]: the Kb worked out at 830 nM at EP1 receptor (Table 2); 150 nM on EP4 receptor (Table 2); 50 nM on EP3 receptor (Table 2); 7800 nM on EP2 receptor (Table 2, NA = inactive); 2000 nM at FP receptor (Table 2); 8 nM on TP receptor (Table 2). Besides, at DP receptor (Table 2), the Kb came out at 8 nM. The IC50 on FAAH Rat brain (setting [2]) turned out to be 100 nM.
In the case of `COc1ccc(CCC(=O)NS(=O)(=O)C(C)C)c(CN2CCC[C@H]2c2nc(C(=O)NCCCCC3CCCCC3)co2)c1` [Example 12i, (S)—N-(4-cyclohexylbutyl)-2-(1-(5-methoxy-2-(3-oxo-3-(isopropylsulfonamido)propyl)benzyl)pyrrolidin-2-yl)oxazole-4-carboxamide], the Kb on EP1 receptor (Table 2) turned out to be 1900 nM; at EP4 receptor (Table 2) it was 210 nM; at EP3 receptor (Table 2), 480 nM; at FP receptor (Table 2) it was 1500 nM; on TP receptor (Table 2), 1 nM; at DP receptor (Table 2), 44 nM. Also, at FAAH Rat brain (setting [2]), the IC50 is 150 nM.
Regarding `COc1ccc(CCC(=O)NS(=O)(=O)c2ccc(Cl)s2)c(CN2CCC[C@H]2c2nc(C(=O)NCCCCC3CCCCC3)co2)c1` [Example 12j, (S)—N-(4-cyclohexylbutyl)-2-(1-(5-methoxy-2-(3-oxo-3-(5-chlorothienylsulfonamido)propyl)benzyl)pyrrolidin-2-yl)oxazole-4-carboxamide], the antagonist equilibrium constant (Kb) was 240 nM on EP1 receptor (Table 2); 360 nM on EP4 receptor (Table 2); 10 nM on EP3 receptor (Table 2); 900 nM on EP2 receptor (Table 2, NA = inactive); 2300 nM on FP receptor (Table 2); 4 nM on TP receptor (Table 2). For the same molecule, on DP receptor (Table 2), the Kb is 28 nM. In addition, on FAAH Rat brain (setting [2]), the IC50 was 210 nM.
Consider `COc1ccc(CCC(=O)O)c(C(=O)N2CCC[C@H]2c2nc(C(=O)NCCCCC3CCCCC3)co2)c1` [Example 19], for which the IC50 at FAAH Rat brain (setting [3]) was 180 nM.
On to `CCS(=O)(=O)NC(=O)CCc1ccc(OC)cc1C(=O)N1CCC[C@H]1c1nc(C(=O)NCCCCC2CCCCC2)co1` [Example 19a, 2-{(S)-1-[2-(3-Ethanesulfonylamino-3-oxo-propyl)-5-methoxy-benzoyl]-pyrrolidin-2-yl}-oxazole-4-carboxylic acid (4-cyclohexyl-butyl)-amide], for which the IC50 at FAAH Rat brain (setting [3]) is 20 nM.
As for `COc1ccc(CCC(=O)NS(C)(=O)=O)c(C(=O)N2CCC[C@H]2c2nc(C(=O)NCCCCC3CCCCC3)co2)c1` [Example 19b, 2-{(S)-1-[2-(3-Methanesulfonylamino-3-oxo-propyl)-5-methoxy-benzoyl]-pyrrolidin-2-yl}-oxazole-4-carboxylic acid (4-cyclohexyl-butyl)-amide], the IC50 on FAAH Rat brain (setting [3]) turned out to be 30 nM.

The record behind these values is US20120270915A1, “FATTY ACID AMIDE HYDROLASE INHIHIBITORS FOR TREATING PAIN” (priority 2011, published 2012).
